Test results taken from US7544703B2, “Cyclic compound having 4-pyridylalkylthio group having substituted or unsubstituted amino group introduced therein” (Santen Pharmaceutical Co., Ltd., priority 2004, dated 2009).
Counter-ions that a name gives are not always drawn.

Test system: HUVEC (normal human umbilical vein endothelial cells)
Assay: VEGF-induced HUVEC proliferation: cell proliferation inhibitory action test;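 further: each well holds 100 µL cell suspension before compound addition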
Format: cell-based
Details: 72 h, 5 μL of 20 μg/mL test compound solution per well, WST-8 absorbance at 450 nm three days after VEGF addition, read-out: Cell proliferation inhibition rate (%)
Method: A cell proliferation inhibitory action test of the compounds of the present invention was performed using a VEGF-induced HUVEC proliferation evaluation system (HUVEC stands for normal human umbilical vein endothelial cells), which is one of the widely-used methods of evaluating in vitro angiogenesis inhibitory effects of drugs. As one of the widely-used methods of evaluating angiogenesis inhibitory effects of drugs, a cell proliferation inhibitory action test using a VEGF-induced HUVEC proliferation reaction evaluation system has been reported in Cancer Res., 59, 99-106 (1999). According to the method described in the above-mentioned document, a cell proliferation inhibitory action test of the compounds of the present invention was performed, the cell proliferation inhibition rate was calculated, and the angiogenesis inhibitory effect of each of the compounds of the present invention was evaluated using the obtained rate as an index. Each test compound was dissolved in dimethyl sulfoxide (hereinafter abbreviated as DMSO), and the obtained solution was diluted with a commercially available phosphoric acid buffer solution (hereinafter abbreviated as PBS), whereby a 20 μg/mL test compound solution was prepared. HUVEC was suspended in a 0.5% fetal bovine serum (hereinafter abbreviated as FBS)-containing F12K medium, whereby a 2×10^4 cells/mL HUVEC suspension was prepared. VEGF was dissolved in 0.1% bovine serum albumin-containing PBS, and the obtained solution was diluted with the 0.5% FBS-containing F12K medium, whereby a 400 ng/mL VEGF solution was prepared. • 1) The HUVEC suspension was inoculated in an amount of 100 μL into each well of a 96-well plate coated with type I collagen (2×10^3 cells per well). • 2) One day after the inoculation, the test compound solution was added in an amount of 5 μL per well. • 3) One hour after the addition of the test compound solution, the VEGF solution was added in an amount of 5 μL per well. • 4) Three days after the addition of the VEGF solution, WST-8 assay kit (Dojin Chemical Co., Ltd.) was added in an amount of 10 μL per well. • 5) After 3 hours, the above-mentioned plate was attached to an absorptiometer (Multilabel Counter ARVO), and an absorbance at 450 nm of each well suspension (hereinafter referred to as test compound suspension) was measured. • 6) A test was carried out in the same manner as in the above 1) to 5) except that 1.0% DMSO was used instead of the test compound solution. The result was used as a control. Incubation was carried out under conditions of 37° C., 5% carbon dioxide and […] in an incubator throughout the above-mentioned test steps. The cell proliferation inhibition rate (%), which was used as an index of an angiogenesis inhibitory effect, was calculated according to the following calculation equation. Cell proliferation inhibition rate (%)=100−{(Absorbance of test compound suspension−A)/(absorbance of control−A)}×100 (Calculation Equation) A: Absorbance of only cell suspension (cell+medium) (Test Results and Discussion)

Row | Structure (SMILES) | inhibition at 20 µg/mL (stock) [%]
1 | CC(C)(C)OC(=O)Nc1cc(CSc2ncccc2C(=O)Nc2ccc(C(C)(C)C)cc2)ccn1 [Compound 2-5, 2-(2-tert-Butoxycarbonylaminopyridin-4-ylmethylthio)-N-(4-tert-butylphenyl)pyridine-3-carboxamide] | 95
2 | CC(=O)Nc1cc(CSc2ccsc2C(=O)Nc2ccc(Cl)cc2)ccn1 [Compound 4-57, 3-(2-Acetylaminopyridin-4-ylmethylthio)-N-(4-chlorophenyl)thiophene-2-carboxamide] | 100
3 | Cc1cc(C)cc(NC(=O)c2cccnc2SCc2ccnc(NC(=O)NC(C)(C)C)c2)c1 [Compound 5-2, 2-[2-(N′-tert-Butylureido)pyridin-4-ylmethylthio]-N-(3,5-dimethylphenyl)pyridine-3-carboxamide] | 100
4 | Cc1cc(C)cc(NC(=O)c2cccnc2SCc2ccnc(NC3CC3)c2)c1 [Compound 1-2, 2-(2-Cyclopropylaminopyridin-4-ylmethylthio)-N-(3,5-dimethylphenyl)pyridine-3-carboxamide] | 100
5 | CN(C)CCN(C)CC(=O)NC(Sc1ncccc1C(=O)Nc1ccc(OC(F)(F)F)cc1)c1ccncc1 (stereo not drawn) [Compound 17-28, 2-[2-(N-(2-Dimethylaminoethyl)-N-methylamino)acetylaminopyridin-4-ylmethylthio]-N-(4-trifluoromethoxyphenyl)pyridine-3-carboxamide] | 100
6 | CC(C)(C)c1ccc(NC(=O)c2cccnc2SCc2ccnc(N)c2)cc1 [Compound 3-4, 2-(2-Aminopyridin-4-ylmethylthio)-N-(4-tert-butylphenyl)pyridine-3-carboxamide monohydrochloride] | 100
7 | CNc1cc(CSc2ncccc2C(=O)Nc2ccc3c(c2)CCC3)ccn1 [Compound 3-7, N-(Indan-5-yl)-2-(2-methylaminopyridin-4-ylmethylthio)pyridine-3-carboxamide monohydrochloride] | 96
8 | Cc1cc(C)cc(NC(=O)c2cccnc2SCc2ccnc(N3CCN(C)CC3)c2)c1 [Compound 1-1, N-(3,5-Dimethylphenyl)-2-[2-(4-methylpiperazin-1-yl)pyridin-4-ylmethylthio]pyridine-3-carboxamide] | 97
9 | CC(=O)Nc1cc(CSc2ccccc2C(=O)Nc2ccc(C(C)(C)C)cc2)ccn1 [Compound 4-44, 2-(2-Acetylaminopyridin-4-ylmethylthio)-N-(4-tert-butylphenyl)benzamide] | 85
10 | Nc1cc(CSc2ncccc2C(=O)Nc2ccc(Cl)cc2)ccn1 [Compound 3-9, 2-(2-Aminopyridin-4-ylmethylthio)-N-(4-chlorophenyl)pyridine-3-carboxamide monohydrochloride] | 100
11 | Nc1cc(CSc2ccccc2C(=O)Nc2ccc(Cl)cc2)ccn1 [Compound 3-21, 2-(2-Aminopyridin-4-ylmethylthio)-N-(4-chlorophenyl)benzamide monohydrochloride] | 100
12 | Nc1cc(CSc2ncccc2C(=O)Nc2ccc3cn[nH]c3c2)ccn1 [Compound 3-5, 2-(2-Aminopyridin-4-ylmethylthio)-N-(1H-indazol-6-yl)pyridine-3-carboxamide monohydrochloride] | 96
13 | O=C(Nc1ccc2c(c1)CCC2)c1cccnc1SCc1ccnc(N2CCOCC2)c1 [Compound 1-10, N-(Indan-5-yl)-2-(2-morpholinopyridin-4-ylmethylthio)pyridine-3-carboxamide] | 94
14 | CC(C)(C)OC(=O)Nc1cc(CSc2ncccc2C(=O)Nc2ccc3c(c2)CCC3)ccn1 [Compound 2-3, 2-(2-tert-Butoxycarbonylaminopyridin-4-ylmethylthio)-N-(indan-5-yl)pyridine-3-carboxamide] | 100
15 | CC(C)(C)OC(=O)Nc1cc(CSc2ncccc2C(=O)Nc2ccc(OC(F)(F)F)cc2)ccn1 [Compound 2-4, 2-(2-tert-Butoxycarbonylaminopyridin-4-ylmethylthio)-N-(4-trifluoromethoxyphenyl)pyridine-3-carboxamide] | 99
16 | CC(=O)N(C)c1cc(CSc2ncccc2C(=O)Nc2cc(C)cc(C)c2)ccn1 [Compound 4-12, 2-[2-(N-Acetyl-N-methylamino)pyridin-4-ylmethylthio]-N-(3,5-dimethylphenyl)pyridine-3-carboxamide] | 100
17 | Cc1cc(C)cc(NC(=O)c2cccnc2SCc2ccnc(NC(=O)C(C)C)c2)c1 [Compound 4-4, N-(3,5-Dimethylphenyl)-2-(2-isobutyrylaminopyridin-4-ylmethylthio)pyridine-3-carboxamide] | 100
18 | Cc1cc(C)cc(NC(=O)c2cccnc2SCc2ccnc(NC(=O)C(C)(C)C)c2)c1 [Compound 4-5, N-(3,5-Dimethylphenyl)-2-(2-pivaloylaminopyridin-4-ylmethylthio)pyridine-3-carboxamide] | 100
19 | Cc1cc(C)cc(NC(=O)c2cccnc2SCc2ccnc(NS(=O)(=O)C(F)(F)F)c2)c1 [Compound 4-6, N-(3,5-Dimethylphenyl)-2-(2-trifluoromethanesulfonylaminopyridin-4-ylmethylthio)pyridine-3-carboxamide] | 100
20 | CCCNC(=O)Nc1cc(CSc2ncccc2C(=O)Nc2cc(C)cc(C)c2)ccn1 [Compound 5-1, N-(3,5-Dimethylphenyl)-2-[2-(N′-n-propylureido)pyridin-4-ylmethylthio]pyridine-3-carboxamide] | 100
21 | CCCCCNc1cc(CSc2ncccc2C(=O)Nc2cc(C)cc(C)c2)ccn1 [Compound 1-20, N-(3,5-Dimethylphenyl)-2-(2-n-pentylaminopyridin-4-ylmethylthio)pyridine-3-carboxamide] | 100
22 | CNC(=O)Nc1cc(CSc2ncccc2C(=O)Nc2ccc(OC(F)(F)F)cc2)ccn1 [Compound 9-2, 2-[2-(N′-Methylureido)pyridin-4-ylmethylthio]-N-(4-trifluoromethoxyphenyl)pyridine-3-carboxamide] | 100
23 | Cc1cc(C)cc(NC(=O)c2cccnc2SCc2ccnc(NC=O)c2)c1 [Compound 6-1, N-(3,5-Dimethylphenyl)-2-(2-formylaminopyridin-4-ylmethylthio)pyridine-3-carboxamide] | 100
24 | Cc1cc(C)cc(NC(=O)c2cccnc2SCc2ccnc(Nc3ccccc3)c2)c1 [Compound 8-1, N-(3,5-Dimethylphenyl)-2-(2-phenylaminopyridin-4-ylmethylthio)pyridine-3-carboxamide] | 100
25 | CC(C)c1cccc(NC(=O)c2cccnc2SCc2ccnc(NC(=O)OC(C)(C)C)c2)c1 [Compound 2-2, 2-(2-tert-Butoxycarbonylaminopyridin-4-ylmethylthio)-N-(3-isopropylphenyl)pyridine-3-carboxamide] | 100
26 | CC(C)(C)OC(=O)Nc1cc(CSc2ncccc2C(=O)Nc2ccc3cn[nH]c3c2)ccn1 [Compound 2-6, 2-(2-tert-Butoxycarbonylaminopyridin-4-ylmethylthio)-N-(1H-indazol-6-yl)pyridine-3-carboxamide] | 100
27 | CC(=O)Nc1cc(CSc2ncccc2C(=O)Nc2cc(C)c(O)c(C)c2)ccn1 [Compound 4-37, 2-(2-Acetylaminopyridin-4-ylmethylthio)-N-(3,5-dimethyl-4-hydroxyphenyl)pyridine-3-carboxamide] | 100
28 | Cc1cc(C)cc(NC(=O)c2cccnc2SCc2ccnc(N(C)CCN(C)C)c2)c1 [Compound 1-3, 2-[2-(N-(2-Dimethylaminoethyl)-N-methylamino)pyridin-4-ylmethylthio]-N-(3,5-dimethylphenyl)pyridine-3-carboxamide] | 99
29 | Cc1cc(C)cc(NC(=O)c2sccc2SCc2ccnc(N)c2)c1 [Compound 3-28, 3-(2-Aminopyridin-4-ylmethylthio)-N-(3,5-dimethylphenyl)thiophene-2-carboxamide] | 100
30 | Nc1cc(CSc2ncccc2C(=O)Nc2cc3ccccc3cn2)ccn1 [Compound 3-13, 2-(2-Aminopyridin-4-ylmethylthio)-N-(isoquinolin-3-yl)pyridine-3-carboxamide] | 100
